Columns and labels:
[1] = biological target: T1, RBP4 (Homo sapiens (Human), UniProt P02753); experiment: Scintillation proximity RBP4 binding assay (SPA); settings: for IC50: 10 nM 3H-Retinol, 50 nM biotinylated RBP4
Procedure: Scintillation Proximity RBP4 Binding Assay
Untagged human RBP4 purified from urine of tubular proteinuria patients was purchased from Fitzgerald Industries International. It was biotinylated using the EZ-Link Sulfo-NHS-LC-Biotinylation kit from Pierce following the manufacturer's recommendations. Binding experiments were performed in 96-well plates (OptiPlate, PerkinElmer) in a final assay volume of 100 μl per well in SPA buffer (1×PBS, pH 7.4, 1 mM EDTA, 0.1% BSA, 0.5% CHAPS). The reaction mix contained 10 nM ^3H-Retinol (48.7 Ci/mmol; PerkinElmer), 0.3 mg/well Streptavidin-PVT beads, 50 nM biotinylated RBP4 and a test compound. Nonspecific binding was determined in the presence of 20 μM of unlabeled retinol. The reaction mix was assembled in the dark under dim red light. The plates were sealed with clear tape (TopSeal-A: 96-well microplate, PerkinElmer), wrapped in the aluminum foil, and allowed to equilibrate 6 hours at room temperature followed by overnight incubation at +4° C. Radiocounts were measured using a TopCount NXT counter (Packard Instrument Company).

[2] = biological target: T2, RBP4-TTR interaction (Homo sapiens (Human), UniProt P02753); experiment: TR-FRET (HTRF) assay for retinol-induced RBP4-TTR interaction; type: biochemical; settings: for IC50: in the presence of 1 μM retinol, read-out: HTRF assay for antagonists of RBP4-TTR interaction IC50
Excerpt: TR-FRET Assay for Retinol-Induced RBP4-TTR Interaction
Binding of a desired RBP4 antagonist displaces retinol and induces hindrance for RBP4-TTR interaction resulting in the decreased FRET signal (FIG. 7). Bacterially expressed MBP-RBP4 and untagged TTR were used in this assay. For the use in the TR-FRET assay the maltose binding protein (MBP)-tagged human RBP4 fragment (amino acids 19-201) was expressed in the Gold(DE3)pLysS E. coli strain (Stratagene) using the pMAL-c4x vector. Following cell lysis, recombinant RBP4 was purified from the soluble fraction using the ACTA FPLC system (GE Healthcare) equipped with the 5-ml the MBP Trap HP column. Human untagged TTR was purchased from Calbiochem. Untagged TTR was labeled directly with Eu^3+ Cryptate-NHS using the HTRF Cryptate Labeling kit from CisBio following the manufacturer's recommendations. HTRF assay was performed in white low volume 384 well plates (Greiner-Bio) in a final assay volume of 16 μl per well. The reaction buffer contained 10 mM Tris-HCl pH 7.5, 1 mM DTT, 0.05% NP-40, 0.05% Prionex, 6% glycerol, and 400 mM KF. Each reaction contained 60 nM MBP-RBP4 and 2 nM TTR-Eu along with 26.7 nM of anti-MBP antibody conjugated with d2 (Cisbio). Titration of test compounds in this assay was conducted in the presence of 1 μM retinol. All reactions were assembled in the dark under dim red light and incubated overnight at +4° C. wrapped in aluminum foil. TR-FRET signal was measured in the SpectraMax M5e Multimode Plate Reader (Molecular Device). Fluorescence was excited at 337 nm and two readings per well were taken: Reading 1 for time-gated energy transfer from Eu(K) to d2 (337 nm excitation, 668 nm emission, counting delay 75 microseconds, counting window 100 microseconds) and Reading 2 for Eu(K) time-gated fluorescence (337 nm excitation, 620 nm emission, counting delay 400 microseconds, counting window 400 microseconds). The TR-FRET signal was expressed as the ratio of fluorescence intensity: Flu665/Flu620×10,000.

[3] = test system: wild-type and Abca4−/− mice; experiment: Efficacy in a mammalian model; type: in vivo, mouse; settings: orally dosed for 3 weeks at 30 mg/kg
Procedure: (§1) The effectiveness of the compounds listed in Example 1-46 are tested in wild-type and Abca4−/− mice. The Abca4−/− mouse model manifests accelerated accumulation of lipofuscin in the RPE and is considered a pre-clinical efficacy model for a drug reducing lipofuscin accumulation. Compounds are orally dosed for 3 weeks at 30 mg/kg. There is a reduction in the serum RBP4 level in treated animals. The levels of A2E/isoA2E and other bisretinoids are reduced in treated mice.
as §1, with “octahydropyrrolopyrroles 66 and 67” for “compounds listed in Example 1-46”
as §1, with “octahydropyrrolopyrroles of the present invention” for “compounds listed in Example 1-46”

[4] = biological target: T1, RBP4; settings: cited from earlier work
[5] = biological target: T2, RBP4-TTR interaction; settings: cited from earlier work
[6] = test system: serum RBP4 and retinol; settings: in vivo; cited from earlier work
[7] = test system: Abca4−/− mice; settings: cited from earlier work
[8] = test system: retinal pigment epithelium cells; settings: many cell types, including retinal pigment epithelium cells; cited from earlier work
[9] = test system: mice; settings: cited from earlier work

RBP4 binding (SPA), in words [1]	IC50 [1]	IC50 [2]	Structure (SMILES)	antagonism of retinol-dependent RBP4-TTR interaction (HTRF), in words [2]	levels of A2-DHP-PE and atRAL di-PE [3]	levels of A2E/isoA2E and other bisretinoids [3]	serum RBP4 level [3]	binding to RBP4 [4]	displacement of all-trans retinol from RBP4 [4]	RBP4-TTR interaction [5]	ocular all-trans retinol uptake [6]	serum RBP4 and retinol [6]	A2E production [7]	induction of apoptosis [8]	formation of hemangiosarcomas [9]
binded to RBP4	3.9 nM	74 nM	COC(=O)c1cc(C)nc(N2C[C@@H]3CN(c4ccccc4C(F)(F)F)C[C@@H]3C2)n1 [Compound 66, Methyl 6-methyl-2-((3aR,6aS)-5-(2-(trifluoromethyl)phenyl)hexahydropyrrolo[3,4-c]pyrrol-2(1H)-yl)pyrimidine-4-carboxylate]	antagonized retinol-dependent RBP4-TTR interaction	also reduced	reduced	reduction	–	–	–	–	–	–	–	–
binded to RBP4	1.68 nM	20.8 nM	Cc1ccc2nnc(C(=O)N3C[C@@H]4CN(c5ccccc5C(F)(F)F)C[C@@H]4C3)n2c1 [Compound 65, (6-Methyl-[1,2,4]triazolo[4,3-a]pyridin-3-yl)((3aR,6aS)-5-(2-(trifluoromethyl)phenyl)hexahydropyrrolo[3,4-c]pyrrol-2 (1H)-yl)methanone]	antagonized retinol-dependent RBP4-TTR interaction	–	–	–	–	–	–	–	–	–	–	–
–	–	–	Cc1cc(C(=O)O)nc(N2C[C@@H]3CN(c4ccccc4C(F)(F)F)C[C@@H]3C2)n1 [Compound 67, 6-Methyl-2-((3aR,6aS)-5-(2-(trifluoromethyl)phenyl)hexahydropyrrolo[3,4-c]pyrrol-2(1H)-yl)pyrimidine-4-carboxylic Acid]	–	also reduced	reduced	reduction	–	–	–	–	–	–	–	–
–	–	–	CC1=C(/C=C/C(C)=C/C=C/C(C)=C/C(=O)Nc2ccc(O)cc2)C(C)(C)CCC1 [fenretinide, N-(4-hydroxy-phenyl)retinamide]	–	–	–	–	bind to RBP4	displace all-trans retinol from RBP4	disrupt the RBP4-TTR interaction	inhibit ocular all-trans retinol uptake	reduce serum RBP4 and retinol	reduced A2E production	extremely active inducer of apoptosis	stimulate formation of hemangiosarcomas

Reference: US10787453B2, “Octahydropyrrolopyrroles their preparation and use” (The Trustees of Columbia University in the City of New York, priority 2013, dated 2020)
